Where two headings read alike, the source gives them in different places.
Assays:
[1] = test system: tobacco budworm (Heliothis virescens [Fabricius]); assay: Diet test: test chemical incorporated into artificial diet of tobacco budworm larvae, 5-day exposure; type: in vivo; conditions: for IC50 / LC50 / mortality at 100 µM / pest or weed control at 100 µM: Heliothis virescens, 120 h; for LC50: read-out: pLC50 (converted); for mortality at 100 µM / pest or weed control at 100 µM: feed or water; for mortality at 100 µM: read-out: Percent Mortality; for pest or weed control at 100 µM / Percent Growth Inhibition: rate of application 4 (negative log of molar concentration in the diet), second instar larvae, 25°C; for pest or weed control at 100 µM: read-out: Percent Growth Inhibition
Protocol: Candidate insecticides were incorporated into an artificial diet for evaluation of insecticidal activity against the tobacco budworm (Heliothis virescens [Fabricius]) in the following manner. Stock solutions of test chemical in dimethyl sulfoxide, ranging from […], were prepared for each rate of application. One hundred microliters of each of the stock solutions was manually stirred into 50 mL of a molten (65-70°C) wheat germ-based artificial diet. The 50 mL of molten diet containing the test chemical was poured evenly into twenty wells in the outer two rows on each side of a twenty-five well, five row plastic tray. (Each well in the tray was about 1 cm in depth, with an opening of 3 cm by 4 cm at the lip.) Molten diet containing only dimethyl sulfoxide at the levels used in the test chemical-treated diet was poured into the five wells in the third (center) row of the tray. Each tray therefore contained one test chemical at a single rate of application, together with an untreated control. The rates of application, expressed as the negative log of the molar concentration, and the corresponding concentrations of the stock solution prepared for each rate are shown below:
Single second instar tobacco budworm larvae, selected at a stage of growth at which they uniformly weigh about 5 mg each, were placed in each well. Upon completion of infestation, a sheet of clear plastic was heat-sealed over the top of the tray by use of a common household flat.iron. The trays were held at 25°C at 60% relative humidity for five days in a growth chamber. Lighting was set at 14 hours of light and 10 hours of darkness. After the 5-day exposure period, mortality counts were taken, and the surviving insects were weighed. From the weights of the surviving insects that fed on the treated diet as compared to those insects that fed on the untreated diet, the percent growth inhibition caused by each test chemical was determined. […] Also, where possible, the negative log of the concentration of the test chemical that provided 50% mortality (pLC50) was determined.

[2] = test system: tobacco budworm (Heliothis veriscens [Fabricius]); assay: Foliar spray test on chick pea plants, tobacco budworm, 96 hour exposure; type: in vivo, Heliothis virescens; conditions: rate of application 100 ppm, dead plus moribund insects, * = average of more than one test
Protocol: (§1) Candidate insecticides with high pl50 values from the diet test were tested for insecticidal activity in foliar evaluations against tobacco budworm, beet armyworm (Spodoptera exigua [Hubner]), and cabbage looper (Trichoplusia ni [Hubner])
(§2) In these tests against tobacco budworm and beet armyworm, nine-day-old chick pea plants (Cicer arietinum) were sprayed at 20 psi to runoff on both upper and lower leaf surfaces with solutions of test chemical to provide application rates as high as 1000 ppm of test chemical. The solvent used to prepare the solutions of test chemical was 10% acetone or methanol (v/v) and 0.1% of the surfactant octylphenoxypolyethoxyethanol in distilled water. Four replicates, each containing one chick pea plant, for each rate of application of test chemical were sprayed. The treated plants were transferred to a hood, where they were kept until the spray had dried.
(§3) The four chick pea plants for each replicate treated with test chemical as described above were removed from their pots by cutting the stems just above the soil line. The excised leaves and stems from the four plants in each replicate were placed in individual 8-ounce paper cups, each containing a moistened filter paper. Five second-instar (6 days old) tobacco budworms or beet armyworms (7-8 days old) were counted into each cup, taking care not to cause injury. An opaque plastic lid was placed on each cup, which was then held in a growth chamber for a 96 hour exposure period at 25°C and 50% relative humidity. At the end of the 96 hour exposure period the cups were opened, and the numbers of dead, moribund, and live insects were counted. Using the insect counts, the efficacy of the test chemical was expressed in percent control. Percent control is derived from the total number of dead insects (TD) plus the total number of moribund insects (TM) as compared to the total number of insects (TI) in the test: % Control =(TD+TM)/(TI)x 100 [formula]
(§4) The condition of the test plants was also observed for phytotoxicity and for reduction of feeding damage as compared to an untreated control.

[3] = test system: cabbage looper (Trichoplusia ni [Hubner]); assay: Foliar spray test on pinto bean plants, cabbage looper, 96 hour exposure; type: in vivo; conditions: rate of application 100 ppm, dead plus moribund insects, * = average of more than one test
Protocol: as §1, §2, §3, §4
Foliar tests with cabbage looper were conducted in the same manner as described above, the difference being that pinto bean plants (Phaseolus vulgaris) were used in place of chick pea plants.

[4] = test system: beet armyworm (Spodoptera exigua [Hubner]); assay: Foliar spray test on chick pea plants, beet armyworm, 96 hour exposure; type: in vivo; conditions: rate of application 100 ppm, dead plus moribund insects, * = average of more than one test
Protocol: as §1, §2, §3, §4

[5] = negative log of the concentration that provides 50% growth inhibition, by linear regression, 5 days, * = average of more than one test, read-out: pl50 (converted)
[6] = negative log of the concentration that provides 50% mortality, 5 days, * = average of more than one test
[7] = 5 days, * = average of more than one test
[8] = negative log of the concentration that provides 50% growth inhibition, by linear regression, 5 days, * = average of more than one test

COc1ccc(CN2CCC(C(O)(c3ccc(OC(F)(F)F)cc3)c3ccc(OC(F)(F)F)cc3)CC2)cc1 [Compound 1, N-(4-methoxyphenylmethyl)-4-[bis(4-trifluoromethoxyphenyl)hydroxymethyl]piperidine]
IC50 [1, 5]: 794 nM
LC50 [1, 6]: 25100 nM
mortality at 100 µM [1]: 100%
pest or weed control at 100 µM [1, 7]: 100%
Percent Control TBW [2]: 80%
Percent Control CL [3]: 100%
Percent Control BAW [4]: 55%

Cn1nnc(-c2ccc(CN3CCC(C(O)(c4ccc(OC(F)(F)F)cc4)c4ccc(OC(F)(F)F)cc4)CC3)cc2)n1 [Compound 9, N-[4-(2-methyl-2H-tetrazol-5-yl)phenylmethyl]-4-[bis(4-trifluoromethoxyphenyl)hydroxymethyl]piperidine]
IC50 [1, 5]: ≤ 316 nM
LC50 [1, 6]: 2510 nM
mortality at 100 µM [1]: 100%
pest or weed control at 100 µM [1, 7]: 100%
pl50 [1, 8]: 6.6
Percent Control TBW [2]: 100%
Percent Control CL [3]: 100%
Percent Control BAW [4]: 100%

Cn1nnc(-c2ccc(CN3CCC(C(O)(c4ccc(C(F)(F)F)cc4)c4ccc(C(F)(F)F)cc4)CC3)cc2)n1 [Compound 31, N-[4-(2-methyl-2H-tetrazol-5-yl)phenylmethyl]-4-[bis(4-trifluoromethylphenyl)hydroxymethyl]piperidine]
IC50 [1, 5]: ≤ 316 nM
LC50 [1, 6]: 2510 nM
mortality at 100 µM [1]: 100%
pest or weed control at 100 µM [1, 7]: 100%
Percent Control TBW [2]: 100%
Percent Control CL [3]: 100%
Percent Control BAW [4]: 100* %

Cn1nnc(-c2ccc(C[N+]3([O-])CCC(C(O)(c4ccc(C(F)(F)F)cc4)c4ccc(C(F)(F)F)cc4)CC3)cc2)n1 (stereo not drawn) [Compound 32, N-[4-(2-methyl-2H-tetrazol-5-yl)phenylmethyl]-4-[bis(4-trifluoromethylphenyl)hydroxymethyl]piperidine N-oxide]
IC50 [1, 5]: ≤ 316 nM
LC50 [1, 6]: 2510 nM
mortality at 100 µM [1]: 100%
pest or weed control at 100 µM [1, 7]: 100%
Percent Control TBW [2]: 100%
Percent Control CL [3]: 100%
Percent Control BAW [4]: 100* %

CCn1nnc(-c2ccc(CN3CCC(C(O)(c4ccc(C(F)(F)F)cc4)c4ccc(C(F)(F)F)cc4)CC3)cc2)n1 [Compound 33]
IC50 [1, 5]: ≤ 316 nM
LC50 [1, 6]: 794 nM
mortality at 100 µM [1]: 100%
pl50 [1, 8]: 6.6
Percent Growth Inhibition [1, 7]: 99%
Percent Control TBW [2]: 100%
Percent Control CL [3]: 95%
Percent Control BAW [4]: 100%

CCn1nnc(-c2ccc(C[N+]3([O-])CCC(C(O)(c4ccc(C(F)(F)F)cc4)c4ccc(C(F)(F)F)cc4)CC3)cc2)n1 (stereo not drawn) [Compound 34]
IC50 [1, 5]: ≤ 316 nM
LC50 [1, 6]: 1260 nM
mortality at 100 µM [1]: 100%
Percent Growth Inhibition [1, 7]: 100%
Percent Control TBW [2]: 100%
Percent Control CL [3]: 100%
Percent Control BAW [4]: 100%

CCCOc1ccc(CN2CCC(C(O)(c3ccc(C(F)(F)F)cc3)c3ccc(C(F)(F)F)cc3)CC2)cc1 [Compound 102]
LC50 [1]: 3160 nM
IC50 ([1]; read-out: pl50): < 1000 nM
mortality at 100 µM [1]: 100%
Percent Growth Inhibition [1, 7]: 100%
Percent Control TBW [2]: 98* %
Percent Control CL [3]: 100* %
Percent Control BAW [4]: 100* %

Reference: EP0844825B1, “INSECTICIDAL N-(SUBSTITUTED ARYLMETHYL)-4- BIS(SUBSTITUTED PHENYL OR PYRIDYL)METHYL]PIPERIDINES” (FMC CORPORATION, priority 1995, dated 1996)
